Test results: US20080058213A1, “Benzoxazole Compounds” (priority 2004, published 2008)

Tests used:
[1] = system: corn; assay: Foliage treatment test for upland field (Test Example 3): phytotoxicity to corn; type: in vivo; conditions: foliage treatment at 1.0-2.0 leaf stage of southern crabgrass, examined after 3 weeks; note: key: 0: normal growth; 1: little damaged; 2: low damaged; 3: medium damaged; 4: serious damaged; 5: complete killed
In short: (§1)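 Crops sown in compost-mixed soil pots, kept in a glasshouse at 25° C. average. Effect scored after 3 weeks versus untreated control on a 0–5 scale (0 normal growth, 5 complete kill).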

[2] = system: common purslane; assay: Foliage treatment test for upland field (Test Example 3): common purslane; type: in vivo; conditions: foliage treatment at 1.0-2.0 leaf stage of southern crabgrass, examined after 3 weeks
In short: (§2)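 Scored after 3 weeks at 25° C on a six-grade scale from 0 (under 20% inhibition) to 5 (100%) relative to untreated plants. Foliar spray of diluted wettable powder at 15 L/are, applied when southern crabgrass reached the 1.0-2.0 leaf stage.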

[3] = system: Monochoria (Monochoria vaginalis); assay: Weed control test for paddy field (Test Example 1): Monochoria; type: in vivo; conditions: paddy pots, treated at 1.0 leaf stage of barnyard grass, examined after 3 weeks
In short: (§3)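 Paddy-soil pots flooded to 3 cm, seeded with weeds and transplanted with 2.0-leaf rice. Wettable-powder formulations diluted in water and applied dropwise at a prescribed active-ingredient dose per are at barnyard grass 1.0-leaf stage. After 3 weeks in a 25 °C glasshouse, growth inhibition versus untreated control scored 0–5 (0: <20%; 5: 100%).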

[4] = system: velvetleaf; assay: Foliage treatment test for upland field (Test Example 3): velvetleaf; type: in vivo; conditions: foliage treatment at 1.0-2.0 leaf stage of southern crabgrass, examined after 3 weeks
In short: as §2

[5] = system: soybean; assay: Foliage treatment test for upland field (Test Example 3): phytotoxicity to soybean; type: in vivo; conditions: foliage treatment at 1.0-2.0 leaf stage of southern crabgrass, examined after 3 weeks; note: key: 0: normal growth; 1: little damaged; 2: low damaged; 3: medium damaged; 4: serious damaged; 5: complete killed
In short: as §1

[6] = system: barnyard grass (Echinochloa crusgalli); assay: Weed control test for paddy field (Test Example 1): barnyard grass; type: in vivo; conditions: paddy pots, treated at 1.0 leaf stage of barnyard grass, examined after 3 weeks
In short: as §3

[7] = system: southern crabgrass (Digitaria ciliaris); assay: Soil treatment test for upland field (Test Example 2): southern crabgrass; type: in vivo; conditions: soil treatment before germination, examined after 3 weeks
In short: (§4)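 Seeds were sown in upland field soil and covered. Next, diluted wettable-powder formulations were sprayed evenly over the surface before germination, using 15 liters of water per are. Pots then stood in a glasshouse averaging 25° C for 3 weeks before grading inhibition 0–5 relative to controls.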

[8] = system: rice plant; assay: Weed control test for paddy field (Test Example 1): phytotoxicity to rice plant; type: in vivo; conditions: paddy pots, treated at 1.0 leaf stage of barnyard grass, examined after 3 weeks
In short: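 Rice transplanted at 2.0 leaf stage into flooded paddy soil pots (3 cm water) sown with weeds. Wettable powder applied dropwise at a prescribed active ingredient dose per are at 1.0 leaf stage of barnyard grass. Kept 3 weeks in glasshouse at 25 °C. Phytotoxicity scored 0 (normal) to 5 (killed) against untreated control.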

[9] = system: velvetleaf (Abutilon theophrasti); assay: Soil treatment test for upland field (Test Example 2): velvetleaf; type: in vivo; conditions: soil treatment before germination, examined after 3 weeks
In short: as §4

[10] = system: slender amaranth (Amaranthus viridis); assay: Soil treatment test for upland field (Test Example 2): slender amaranth; type: in vivo; conditions: soil treatment before germination, examined after 3 weeks
In short: as §4

[11] = system: common lambsquaters; assay: Foliage treatment test for upland field (Test Example 3): common lambsquaters; type: in vivo; conditions: foliage treatment at 1.0-2.0 leaf stage of southern crabgrass, examined after 3 weeks
In short: as §2

[12] = system: wheat; assay: Foliage treatment test for upland field (Test Example 3): phytotoxicity to wheat; type: in vivo; conditions: foliage treatment at 1.0-2.0 leaf stage of southern crabgrass, examined after 3 weeks; note: key: 0: normal growth; 1: little damaged; 2: low damaged; 3: medium damaged; 4: serious damaged; 5: complete killed
In short: as §1

[13] = system: wheat; assay: Soil treatment test for upland field (Test Example 2): phytotoxicity to wheat; type: in vivo; conditions: soil treatment before germination, examined after 3 weeks; note: key: 0: normal growth; 1: little damaged; 2: low damaged; 3: medium damaged; 4: serious damaged; 5: complete killed
[14] = system: flat sedge (Cyperus serotinus); assay: Weed control test for paddy field (Test Example 1): flat sedge; type: in vivo; conditions: paddy pots, treated at 1.0 leaf stage of barnyard grass, examined after 3 weeks
In short: as §3

[15] = system: southern crabgrass; assay: Foliage treatment test for upland field (Test Example 3): southern crabgrass; type: in vivo; conditions: foliage treatment at 1.0-2.0 leaf stage of southern crabgrass, examined after 3 weeks
In short: as §2

[16] = system: common purslane (Portulaca oleracea); assay: Soil treatment test for upland field (Test Example 2): common purslane; type: in vivo; conditions: soil treatment before germination, examined after 3 weeks
In short: as §4

[17] = system: Japanese bulrush (Scirpus juncoides); assay: Weed control test for paddy field (Test Example 1): Japanese bulrush; type: in vivo; conditions: paddy pots, treated at 1.0 leaf stage of barnyard grass, examined after 3 weeks
In short: as §3

[18] = system: common lambsquaters (Chenopodium album); assay: Soil treatment test for upland field (Test Example 2): common lambsquaters; type: in vivo; conditions: soil treatment before germination, examined after 3 weeks
In short: as §4

[19] = system: soybean; assay: Soil treatment test for upland field (Test Example 2): phytotoxicity to soybean; type: in vivo; conditions: soil treatment before germination, examined after 3 weeks
[20] = system: corn; assay: Soil treatment test for upland field (Test Example 2): phytotoxicity to corn; type: in vivo; conditions: soil treatment before germination, examined after 3 weeks
[21] = system: slender amaranth; assay: Foliage treatment test for upland field (Test Example 3): slender amaranth; type: in vivo; conditions: foliage treatment at 1.0-2.0 leaf stage of southern crabgrass, examined after 3 weeks
In short: as §2

melting point: 86 to 89 °C
Compound: FC(F)(F)COC/C(=C\c1cccc(C(F)(F)F)c1)c1nc2cc(C(F)(F)F)ccc2o1 [Compound 85, (E)-2-(5-trifluoromethylbenzoxazol-2-yl)-1-(3-trifluoromethylphenyl)-3-(2,2,2-trifluoroethoxy)propene]
Phytotoxicity corn ([1]; dose 2.5 g ai/a): 1
Phytotoxicity corn ([1]; dose 5 g ai/a): 1
Herbicidal Effect common purslane ([2]; dose 2.5 g ai/a): 5 (100%)
Herbicidal Effect common purslane ([2]; dose 5 g ai/a): 5 (100%)
Herbicidal Effect Monochoria vaginalis ([3]; dose 2.5 g ai/a): 5 (100%)
Herbicidal Effect Monochoria vaginalis ([3]; dose 5 g ai/a): 5 (100%)
Herbicidal Effect velvetleaf ([4]; dose 2.5 g ai/a): 5 (100%)
Herbicidal Effect velvetleaf ([4]; dose 5 g ai/a): 5 (100%)
Phytotoxicity soybean ([5]; dose 2.5 g ai/a): 2
Phytotoxicity soybean ([5]; dose 5 g ai/a): 2
Herbicidal Effect Barnyard grass ([6]; dose 2.5 g ai/a): 4 (80%-less than 100%)
Herbicidal Effect Barnyard grass ([6]; dose 5 g ai/a): 5 (100%)
Herbicidal Effect southern crabgrass ([7]; dose 2.5 g ai/a): 5 (100%)
Herbicidal Effect southern crabgrass ([7]; dose 5 g ai/a): 5 (100%)
Phytotoxicity Rice plant ([8]; dose 2.5 g ai/a): 0
Phytotoxicity Rice plant ([8]; dose 5 g ai/a): 0
Herbicidal Effect velvetleaf ([9]; dose 2.5 g ai/a): 5 (100%)
Herbicidal Effect velvetleaf ([9]; dose 5 g ai/a): 5 (100%)
Herbicidal Effect slender amaranth ([10]; dose 2.5 g ai/a): 5 (100%)
Herbicidal Effect slender amaranth ([10]; dose 5 g ai/a): 5 (100%)
Herbicidal Effect Common lambsquatters ([11]; dose 2.5 g ai/a): 5 (100%)
Herbicidal Effect Common lambsquatters ([11]; dose 5 g ai/a): 5 (100%)
Phytotoxicity wheat ([12]; dose 2.5 g ai/a): 1
Phytotoxicity wheat ([12]; dose 5 g ai/a): 1
Phytotoxicity wheat ([13]; dose 2.5 g ai/a): 0
Phytotoxicity wheat ([13]; dose 5 g ai/a): 0
Herbicidal Effect Flat sedge ([14]; dose 2.5 g ai/a): 3 (60%-less than 80%)
Herbicidal Effect Flat sedge ([14]; dose 5 g ai/a): 4 (80%-less than 100%)
Herbicidal Effect southern crabgrass ([15]; dose 2.5 g ai/a): 5 (100%)
Herbicidal Effect southern crabgrass ([15]; dose 5 g ai/a): 5 (100%)
Herbicidal Effect common purslane ([16]; dose 2.5 g ai/a): 5 (100%)
Herbicidal Effect common purslane ([16]; dose 5 g ai/a): 5 (100%)
Herbicidal Effect Japanese bulrush ([17]; dose 2.5 g ai/a): 4 (80%-less than 100%)
Herbicidal Effect Japanese bulrush ([17]; dose 5 g ai/a): 5 (100%)
Herbicidal Effect common lambsquaters ([18]; dose 2.5 g ai/a): 5 (100%)
Herbicidal Effect common lambsquaters ([18]; dose 5 g ai/a): 5 (100%)
Phytotoxicity soybean ([19]; dose 2.5 g ai/a): 0
Phytotoxicity soybean ([19]; dose 5 g ai/a): 0
Phytotoxicity corn ([20]; dose 2.5 g ai/a): 0
Phytotoxicity corn ([20]; dose 5 g ai/a): 0
Herbicidal Effect slender amaranth ([21]; dose 2.5 g ai/a): 5 (100%)
Herbicidal Effect slender amaranth ([21]; dose 5 g ai/a): 5 (100%)
